The text below walks through data of ChEMBL document CHEMBL3352792, “Fragment based search for small molecule inhibitors of HIV-1 Tat-TAR” (Bioorg Med Chem Lett, 2014).

Assay [1] addresses Nucleic Acid. Description: Binding affinity to HIV-1 TAR RNA by Tat-TAR fluorimetric competition assay. The format is nucleic-acid assay, Human immunodeficiency virus 1.
Assay [2] concerns Nucleic Acid. Description: Binding affinity to HIV-1 TAR RNA at 0.4 mM by 1H NMR titration method. The format is nucleic-acid assay. The conditions noted are these: Human immunodeficiency virus 1.
Assay [3] concerns Nucleic Acid. The assay is described as follows: Binding affinity to HIV-1 TAR RNA using 2 equivalents of compound by 1H NMR titration method. The format is nucleic-acid assay. Conditions: Human immunodeficiency virus 1.

Structures can show the parent of a compound that is named as a salt. The source made the active and inactive calls. The calls are words filed in the database; no cut-off is given here.

With `Nc1cccc2c(N)nccc12`, the IC50 (in general, the concentration at which inhibition is half-maximal) in assay [1] stood at 700 µM.

`Nc1ccc2c(N)nc(N)nc2c1` displayed an IC50 in assay [1] of 110 µM.

In the case of `Nc1ccc2ccnc(N)c2c1`, the result in assay [2] was Active. In assay [1], the IC50 is 150 µM.

Molecule `Nc1nc(N)c2ccccc2n1` returned an IC50 in assay [1] of 400 µM.

In the case of `Nc1nc(N)c2c(N)c(N)ccc2n1`, in assay [1], the IC50 was found to be 50 µM.

`CN(C)C1=Nc2cccc3cccc(c23)N1`: the IC50 in assay [1] came to 150 µM. Compared with the last molecule, the IC50 is about 3-fold higher.

In assay [1], `Nc1nc(N)c2cc(CN3CCNCC3)ccc2n1` showed an IC50 of 60 µM.

Take `c1ccc(CNC2=NCCN2)cc1`: the IC50 in assay [1] is over 20000 µM.

With `NC1=Nc2ccccc2CN1`, in assay [1], the IC50 is over 10000 µM.

For the molecule `Cc1ccc2nc(N)nc(N)c2c1`, the IC50 in assay [1] is 2000 µM.

In turn, `N=C(N)Nc1ccccc1` showed an IC50 in assay [1] of over 20000 µM.

Regarding `Nc1nccc2ccc(O)cc12`, the IC50 in assay [1] was found to be 750 µM.

Take `NCc1ccc2nc(N)nc(N)c2c1`: the IC50 in assay [1] was 70 µM.

As to `Nc1ncc[nH]1`, the IC50 in assay [1] is over 2000 µM.

`Nc1ccc2ccncc2c1` displayed an IC50 in assay [1] of 2000 µM.

In turn, `N=C(N)NCc1ccccc1` yielded an IC50 in assay [1] of over 20000 µM.

For `CNC1=Nc2cccc3cccc(c23)N1`, the IC50 in assay [1] amounted to 50 µM.

`CN(C)c1ccc2nc(N)nc(N)c2c1` displayed an IC50 in assay [1] of 45 µM.

In the case of `Nc1nc2ccccc2c(=O)[nH]1`, in assay [1], the IC50 was over 20000 µM.

For `NCc1cnc2nc(N)nc(N)c2n1`, the IC50 in assay [1] came to 50 µM.

For the molecule `NC1=Nc2cccc3cccc(c23)N1`, the IC50 in assay [1] was 50 µM. This counts as double-digit micromolar.

Turning to `Nc1ccccn1` [2-AMINOPYRIDINE], the IC50 in assay [1] was over 20000 µM.

In the case of `Nc1ccc2nc(N)nc(N)c2c1` [QUINAZOLINE-2,4,6-TRIAMINE], the result in assay [3] was Active. This molecule also yielded an IC50 in assay [1] of 40 µM.

`CN(C)c1nc(N(C)C)c2cc(N)ccc2n1` yielded an IC50 in assay [1] of 130 µM.

Turning to `Nc1nc2ccccc2[nH]1`, in assay [1], the IC50 was over 11000 µM.

The molecule `Nc1ncccn1` yielded a half-inhibitory concentration (IC50) in assay [1] of over 20000 µM.

In assay [1], `N=C(N)N` [GUANIDINE HYDROCHLORIDE] gave an IC50 of over 20000 µM.

In assay [1], `Nc1nc(N)c2cc(NCc3ccccc3)ccc2n1` yielded an IC50 of 50 µM.
